{"source": "paper PMC8290497", "about": "“Taxifolin, an Inhibitor of Sortase A, Interferes With the Adhesion of Methicillin-Resistant Staphylococcal aureus” (Frontiers in Microbiology, 2021)", "key": {"Q172A-SrtA mutant": {"target": "T1, Q172A-SrtA mutant (Staphylococcus aureus, UniProt Q2FV99, Q172A)", "T1 construct": "6xHis; made in house; host or cells: E. coli BL21 (DE3), mutated pET28a-SrtA", "assay": "Fluorescence quenching assay, Q172A-SrtA", "type": "binding", "procedure": "(§1) Site-directed mutagenesis for D170A-SrtA and Q172A-SrtA was performed based on plasmid pET28a-SrtA using a multi-site mutagenesis kit (Transgen, Beijing, China) and the desired mutation was verified via DNA sequencing by Sangon Biotech (Shanghai, China). Subsequently, recombinant SrtA and the SrtA mutant proteins (D170A and Q172A) were expressed and purified in accordance with a previously published procedure ([Zhulenkovs et al., 2014]). Briefly, bacteria were cultured until an OD600 value of 0.8 was achieved, after which 0.5 mM isopropyl-β-D-thiogalactopyranoside (IPTG) was added to induce recombination of SrtA at 16°C overnight. Because the recombinant protein had 6 × His tags, it was purified using a nickel-nitrilotriacetic acid (Ni-NTA) purification system. Imidazole (10 mM) was used to wash away excess protein, while 400 mM imidazole was employed to elute the target protein.\n(§2) Molecular modeling studies highlight the benefits of performing site-directed mutagenesis studies. Therefore, fluorescence quenching experiments were utilized to determine the binding affinity of Tax with SrtA and SrtA mutants (D170A, Q172A)."}, "S. aureus USA300": {"test_system": "S. aureus USA300", "assay": "Growth curve and growth rate", "type": "cell-based, Staphylococcus aureus", "procedure": "A broth microdilution assay was performed to determine the minimum inhibitory concentration (MIC) of Tax for S. aureus USA300, as described elsewhere ([Sader et al., 2013]; [Delgado-Valverde et al., 2017]). A growth curve was further evaluated by adding various concentrations of Tax (0–200 μM) to a bacterial culture, then incubating until an OD600 of 0.3 had been reached. S. aureus USA300 and ΔsrtA were used as controls. The OD600 value was recorded for each sample at 1 h intervals for a total of 24 h. The growth rate between S. aureus treated with Tax and S. aureus USA300 was also calculated at each time point.\nFIGURE 2 Growth curve and cytotoxicity. (A) Growth curves of S. aureus USA300 and the ΔsrtA group with different concentrations of Tax. (B) Growth rate of S. aureus USA300 and S. aureus treated with Tax (25 μM). (C) Percent cell viability of HEK293 (purple) and HepG2 (blue) cells were measured using a CCK-8 assay after incubation with Tax for 24 h."}, "[1]": {"test_system": "SrtA expression in S. aureus", "assay": "Western blot analysis of SrtA expression", "type": "cell-based, Staphylococcus aureus", "conditions": "25–200 μM Tax, compared with the untreated group", "procedure": "To evaluate the effect of Tax on SrtA expression, Tax (25–200 μM) was added to different bacterial cultures and incubated overnight at 37°C. Equal quantities of total protein from the bacterial lysates were separated by 12% SDS-PAGE then transferred to a polyvinylidene fluoride (PVDF) membrane using a transblot semidry system. Non-specific binding to the PVDF membrane was prevented by incubating in 5% bovine serum albumin (BSA) overnight at 4°C. The membranes were washed three times with PBST, agitating each time for 5 min, then incubated with rabbit polyclonal antibody (created in the laboratory) against SrtA. Following a further washing in PBST three times, the membranes were incubated with HRP-labeled goat anti-rabbit IgG (Bioworld, China) diluted 1:10,000 in antibody diluent (PBST + 1% BSA) at 37°C for 1 h. ΔsrtA or S. aureus USA300 without Tax was considered the control group. The cytoplasmic protein ClpP was analyzed as an internal control. Blots were visualized using an enhanced chemiluminescence (ECL) detection system (GE Healthcare, United Kingdom), while bands were quantified using ImageQuant TL software (GE Healthcare).\nFIGURE 4 Expression of SrtA in the presence of Tax and the interaction of different concentrations of Tax with SrtA. […] Error bars represent means ± SD of three replicates. ***P < 0.001 calculated with a two-tailed Student’s t-test."}, "D170A-SrtA mutant": {"target": "T2, D170A-SrtA mutant (Staphylococcus aureus, UniProt Q2FV99, D170A)", "T2 construct": "6xHis; made in house; host or cells: E. coli BL21 (DE3), mutated pET28a-SrtA", "assay": "Fluorescence quenching assay, D170A-SrtA", "type": "binding", "procedure": "as §1, §2"}}}
{"smiles": "O=C1c2c(O)cc(O)cc2OC(c2ccc(O)c(O)c2)C1O", "note": "(centres unmarked) [Tax, taxifolin]", "values": [{"measurement": "Kd", "setting": "Q172A-SrtA mutant", "value": 26, "unit": "µM"}, {"measurement": "toxicity toward S. aureus", "setting": "S. aureus USA300; 200 μM", "value": "did not display toxicity"}, {"measurement": "effect on the growth of S. aureus", "setting": "S. aureus USA300; at a concentration of IC50 (25 μM), P > 0.05", "value": "no significant effect"}, {"measurement": "effect on SrtA expression", "setting": "[1]", "value": "no apparent effect"}, {"measurement": "Kd", "setting": "D170A-SrtA mutant", "value": 37.2, "unit": "µM"}]}
